# Laboratory results from US20250388593A1 (MITSUBISHI TANABE PHARMA CORPORATION, priority 2023, published 2025).
# pKd: −log10 of the molar value.
# Biological target: CRBN truncate (318-426) (Homo sapiens (Human), UniProt Q96SW2)
# Experiment: Measurement of molecular interactions using surface plasmon resonance (SPR), Biacore T200
# Type: binding
# Settings: 25° C., immobilized CRBN truncate, upper limit of measurement 200 μM
# Experimental: The instrument used was the Biacore T200 (manufactured by Cytiva). The CRBN truncate (318-426) was obtained by expressing a construct with an Avi-tag added at the C-terminus. The sensor chip used was Sensor Chip SA (manufactured by Cytiva). The CRBN truncate was immobilized using the affinity between SA (streptavidin) on the sensor chip and the Avi-tag. The running buffer was a mixture of 10 mM HEPES pH 7.5, 150 mM NaCl, 1 mM TCEP, 0.005% Tween 20, and 2% DMSO. […] Contact time and dissociation time were set at 60 seconds and 120 seconds, respectively.
# CRBN truncate (318-426), sequence (Q96SW2 318-426): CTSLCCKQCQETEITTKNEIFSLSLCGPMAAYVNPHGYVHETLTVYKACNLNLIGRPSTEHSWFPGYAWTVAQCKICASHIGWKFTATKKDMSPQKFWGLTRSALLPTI
row,Structure (SMILES),pKd
1,"CC(C)(C)OC(=O)N1CCN(C(=O)c2ccc(N3CCC4(CCCC(=O)NC4=O)C3)nc2)CC1 (centres unmarked) [Example 97, tert-Butyl 4-[6-(6,8-dioxo-2,7-diazaspiro [4.6]undecan-2-yl)pyridine-3-carbonyl]piperazine-1-carboxylate]",≤ 4.00
2,"CCOC(=O)c1ccc2nc(N3CCC4(CCCC(=O)NC4=O)C3)sc2c1 (centres unmarked) [Example 73, Ethyl 2-(6,8-dioxo-2,7-diazaspiro[4.6]undecane-2-yl)-1,3-benzothiazole-6-carboxylate]",> 4.30
3,"CC(C)(C)OC(=O)Nc1cccc(-c2cn(C3CCCC(=O)NC3=O)nn2)c1 (centres unmarked) [Example 5, tert-Butyl N-[3-[1-(2,7-dioxoazepan-3-yl)triazol-4-yl]phenyl]carb amate]",≤ 4.00
4,"COc1cc(N2CCC3(CCCC(=O)NC3=O)C2)ccc1[N+](=O)[O-] (centres unmarked) [Example 41, 2-(3-Methoxy-4-nitrophenyl)-2,7-diazaspiro[4.6]undecane-6,8-dione]",≤ 4.00
5,"O=C1CCCC2(CCN(c3nc4ccc([N+](=O)[O-])cc4s3)C2)C(=O)N1 (centres unmarked) [Example 72, 2-(6-Nitro-1,3-benzothiazol-2-yl)-2,7-diazaspiro [4.6]undecane-6,8-dione]",> 4.30
6,"COC(=O)c1cccc(S(=O)(=O)N(C)C2CCCC(=O)NC2=O)c1 (centres unmarked) [Example 11, Methyl 3-[(2,7-dioxoazepan-3-yl)-methylsulfamoyl]benzoate]",≤ 4.00
7,"CC(C)(C)OC(=O)c1ccc(N2CCCC3(CCCC(=O)NC3=O)C2)nc1 (centres unmarked) [Example 93, tert-Butyl 6-(7,9-dioxo-2,8-diazaspiro [5.6]dodecan-2-yl) pyridine-3-carboxylate]",≤ 4.00
8,"O=C1CCCC2(CCCN(C(=O)c3ccccc3)CCC2)C(=O)N1 [Example 14, 11-Benzoyl-2,11-diazaspiro[6.7]tetradecane-1,3-dione]",4.00 to 4.30
9,"CC(C)(C)OC(=O)c1cnc(N2CCC3(CCCC(=O)NC3=O)C2)cn1 (centres unmarked) [Example 35, tert-Butyl 5-(6,8-dioxo-2,7-diazaspiro[4.6]undecan-2-yl)pyrazine-2-carboxylate]",≤ 4.00
10,"CC(C)(C)OC(=O)NCCCCCCc1cccc2c(C(=O)N3CCC4(CCCC(=O)NC4=O)C3)cccc12 (centres unmarked) [Example 161, tert-Butyl N-[6-[5-(6,8-dioxo-2,7-diazaspiro[4.6]undecane-2-carbonyl)naphthalen-1-yl]hexyl]carbamate]",4.00 to 4.30
11,"O=C1CCOC(c2ccccc2)C(=O)N1 (centres unmarked) [Example 18, 2-Phenyl-1,4-oxazepane-3,5-dione]",≤ 4.00
12,"O=C1COCC2(CCCN(C(=O)c3ccccc3)C2)C(=O)N1 (centres unmarked) [Example 12-2, 2-Benzoyl-8-oxa-2,11-diazaspiro[5.6]dodecane-10,12-dione]",≤ 4.00
13,"O=C1CCCC2(CCCN(C(=O)c3ccccc3)C2)C(=O)N1 (centres unmarked) [Example 104, 2-Benzoyl-2,8-diazaspiro [5.6]dodecane-7,9-dione]",≤ 4.00
14,"CC(=O)N1CCN(Cc2ccc(N3CCC4(CCCC(=O)NC4=O)C3)nc2)CC1 (centres unmarked) [Example 89, 2-[5-[(4-Acetylpiperazin-1-yl)methyl]pyridin-2-yl]-2,7-diazaspiro[4.6]undecane-6,8-dione]",≤ 4.00
15,"CC(C)(C)OC(=O)Cn1c(=O)n(C2CCCC(=O)NC2=O)c2ccccc21 (centres unmarked) [Example 138, tert-Butyl 2-[3-(2,7-dioxoazepan-3-yl)-2-oxo-benzimidazol-1-yl]acetate]",4.00 to 4.30
16,"CC(C)(C)OC(=O)NCCCCCCCCN1CC2(CC(=O)N(C3CCC(=O)NC3=O)C2=O)C1 (centres unmarked) [Example 51, tert-Butyl N-[8-[6-(2,6-dioxopiperidin-3-yl)-5,7-dioxo-2,6-diazaspiro[3.4]octan-2-yl]octyl]carbamate]",≤ 4.00

# The remaining lines, values ahead:
row,pKd,Structure (SMILES)
1,≤ 4.00,"O=C1CCCC(Oc2ccc(Br)cc2)C(=O)N1 (centres unmarked) [Example 267, 3-(4-Bromophenoxy) azepane-2,7-dione]"
2,> 4.30,"Cn1nc(N2C=CCC(=O)NC2=O)c2ccc(/C=C/C(=O)OC(C)(C)C)cc21 [Example 287, tert-Butyl (E)-3-[3-(2,4-dioxo-5H-1,3-diazepin-1-yl)-1-methylindazol-6-yl]prop-2-enoate]"
3,> 4.30,"Cc1sc2c(c1C)C(c1ccc(Cl)cc1)=N[C@@H](CC(=O)NCCCCCCCCn1ccc3c(N4CC5(CC(=O)N(C6CCC(=O)NC6=O)C5=O)C4)ncnc31)c1nnc(C)n1-2 (stereo partly drawn) [Example 318, 2-[(9S)-7-(4-chlorophenyl)-4,5,13-trimethyl-3-thia-1,8,11,12-tetraazatricyclo[8.3.0.02,6]trideca-2(6),4,7,10,12-pentaen-9-yl]-N-[8-[4-[6-(2,6-dioxopiperidin-3-yl)-5,7-dioxo-2,6-diazaspiro[3.4]octan-2-yl]pyrrolo[2,3-d]pyrimidin-7-yl]octyl]acetamide]"
4,> 4.30,"Cn1c(=O)n(C2CCCC(=O)NC2=O)c2cccc(C#CCCCCCC(=O)OC(C)(C)C)c21 (centres unmarked) [Example 206, tert-Butyl 8-[1-(2,7-dioxoazepan-3-yl)-3-methyl-2-oxobenzimidazol-4-yl]oct-7-ynoate]"
5,≤ 4.00,"COc1cccc2c1nnn2C1CCCC(=O)NC1=O (centres unmarked) [Example 255, 3-(4-Methoxybenzotriazol-1-yl)azepane-2,7-dione]"
6,> 4.30,"Cc1sc2c(c1C)C(c1ccc(Cl)cc1)=N[C@@H](CC(=O)NCCCCCCCCNC(=O)CCc1cccc3c1n(C)c(=O)n3C1CCCC(=O)NC1=O)c1nnc(C)n1-2 (stereo partly drawn) [Example 333, N-[8-[[2-[(9S)-7-(4-chlorophenyl)-4,5,13-trimethyl-3-thia-1,8,11,12-tetraazatricyclo[8.3.0.02,6]trideca-2(6),4,7,10,12-pentaen-9-yl]acetyl]amino]octyl]-3-[1-(2,7-dioxoazepan-3-yl)-3-methyl-2-oxobenzimidazol-4-yl]propanamide]"
7,≤ 4.00,"CC(C)(C)OC(=O)N1CCc2c(ncnc2N2CCC3(CCCC(=O)NC3=O)C2)C1 (centres unmarked) [Example 190, tert-Butyl 4-(6,8-dioxo-2,7-diazaspiro[4.6]undecan-2-yl)-6,8-dihydro-5H-pyrido[3,4-d]pyrimidine-7-carboxylate]"
8,4.00 to 4.30,"N#Cc1cc([N+](=O)[O-])ccc1N1CCC2(CCCC(=O)NC2=O)C1 (centres unmarked) [Example 177, 2-(6,8-dioxo-2,7-diazaspiro[4.6]undecan-2-yl)-5-nitrobenzonitrile]"
9,≤ 4.00,"CC(C)(C)OC(=O)c1ccc(N2CCC3(CCCC(=O)NC3=O)C2)nn1 (centres unmarked) [Example 184, tert-Butyl 6-(6,8-dioxo-2,7-diazaspiro[4.6]undecan-2-yl)pyridazine-3-carboxylate]"
10,≤ 4.00,"CC(C)(C)OC(=O)N1CCC(Oc2ccc(CN3CC4(CC(=O)N(C5CCC(=O)NC5=O)C4=O)C3)cc2)CC1 (centres unmarked) [Example 237, tert-Butyl 4-[4-[[6-(2,6-dioxopiperidin-3-yl)-5,7-dioxo-2,6-diazaspiro[3.4]octan-2-yl]methyl]phenoxy]piperidine-1-carboxylate]"
11,≤ 4.00,"CC(C)(C)OC(=O)NCCc1ccc(S(=O)(=O)N2CC3(CC(=O)N(C4CCC(=O)NC4=O)C3=O)C2)cc1 (centres unmarked) [Example 278, tert-Butyl N-[2-[4-[[6-(2,6-dioxopiperidin-3-yl)-5,7-dioxo-2,6-diazaspiro [3.4]octan-2-yl]sulfonyl]phenyl]ethyl]carbamate]"
12,> 4.30,"O=C1CCC(N2C(=O)CC3(CN(C4CCN(CC(=O)OCc5ccccc5)CC4)C3)C2=O)C(=O)N1 (centres unmarked) [Example 277, Benzyl 2-[4-[6-(2,6-dioxopiperidin-3-yl)-5,7-dioxo-2,6-diazaspiro [3.4]octan-2-yl]piperidin-1-yl]acetate]"
13,> 4.30,"Cc1sc2c(c1C)C(c1ccc(Cl)cc1)=N[C@@H](CC(=O)NCCCCCCc1ccc(-c3cn(C4CCCC(=O)NC4=O)nn3)cc1)c1nnc(C)n1-2 (stereo partly drawn) [Example 316, 2-[(9S)-7-(4-chlorophenyl)-4,5,13-trimethyl-3-thia-1,8,11,12-tetraazatricyclo[8.3.0.02,6]trideca-2(6),4,7,10,12-pentaen-9-yl]-N-[6-[4-[1-(2,7-dioxoazepan-3-yl)triazol-4-yl]phenyl]hexyl]acetamide]"
14,> 4.30,"Cc1sc2c(c1C)C(c1ccc(Cl)cc1)=N[C@@H](CC(=O)NCCCCCCCCNC(=O)CCc1cccc3c(=O)n(C4CCCC(=O)NC4=O)ccc13)c1nnc(C)n1-2 (stereo partly drawn) [Example 343, N-[8-[[2-[(9S)-7-(4-chlorophenyl)-4,5,13-trimethyl-3-thia-1,8,11,12-tetraazatricyclo[8.3.0.02,6]trideca-2(6),4,7,10,12-pentaen-9-yl]acetyl]amino]octyl]-3-[2-(2,7-dioxoazepan-3-yl)-1-oxoisoquinolin-5-yl]propanamide]"
15,> 4.30,"Cc1sc2c(c1C)C(c1ccc(Cl)cc1)=N[C@@H](CC(=O)NCCCCCCCCNC(=O)/C=C/c1ccc([C@H]3C[C@H](N4C=CCC(=O)NC4=O)C(=O)N3C)cc1)c1nnc(C)n1-2 (relative stereo) [Example 349, (E)-N-[8-[[2-[(9S)-7-(4-chlorophenyl)-4,5,13-trimethyl-3-thia-1,8,11,12-tetrazatricyclo[8.3.0.02,6]trideca-2(6),4,7,10,12-pentaen-9-yl]acetyl]amino]octyl]-3-[4-[(2R*,4S*)-4-(2,4-dioxo-5H-1,3-diazepin-1-yl)-1-methyl-5-oxopyrrolidin-2-yl]phenyl]prop-2-enamide]"
16,> 4.30,"Cc1sc2c(c1C)C(c1ccc(Cl)cc1)=N[C@@H](CC(=O)NCCCCCOc1ccc3nc(N4CC5(CC(=O)N(C6CCC(=O)NC6=O)C5=O)C4)sc3c1)c1nnc(C)n1-2 (stereo partly drawn) [Example 321, 2-[(9S)-7-(4-chlorophenyl)-4,5,13-trimethyl-3-thia-1,8,11,12-tetraazatricyclo[8.3.0.02,6]trideca-2(6),4,7,10,12-pentaen-9-yl]-N-[5-[[2-[6-(2,6-dioxopiperidin-3-yl)-5,7-dioxo-2,6-diazaspiro[3.4]octan-2-yl]-1,3-benzothiazol-6-yl]oxy]pentyl]acetamide]"
